From patent US20110306606A1, “NOVEL 2,6-SUBSTITUTED-3-NITROPYRIDINE DERIVATIVE, METHOD FOR PREPARING SAME, AND PHARMACEUTICAL COMPOSITION INCLUDING SAME” (priority 2008, published 2011)
“And” between values parts separate entries of the source, which are not always exact repeats. Equal values may be shown once. Read-outs that look alike come from different tables or passages of the source.

What was measured:
[1] = tested on: formation of osteoclasts in co-culture of bone marrow cells and osteoblasts; experiment: Osteoclastogenesis inhibition via co-culture system (TRAP staining); assay type: cell-based, mice; conditions: 1 μM compound, 7 days co-culture, TRAP-positive multinucleated osteoclasts vs vehicle control; for inhibition at 1 µM: Mus musculus, Osteoclast, 168 h
Outline: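 Bone marrow cells from male ddY mice were co-cultured with osteoblasts for 7 days in α-MEM/10% FBS with 10^−8 M 1α,25-dihydroxyvitamin D3 and dexamethasone. Compound was present at 1 μM final and refreshed every 2–3 days. TRAP-positive cells with 6–7 nuclei were counted, with % inhibition relative to DMSO vehicle (n=4).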

[2] = tested on: Osteoblasts (Calvarial cells); conditions: ICR, mouse, 72 h, 1 μM
[3] = tested on: Osteoblasts (Calvarial cells); experiment: Alkaline phosphatase (ALP) activity in osteoblasts (Calvarial cells); assay type: cell-based, mice; conditions: 1 μM compound, 3 days; for activity at 1 µM: Mus musculus, 72 h, Calvarial cell, read-out: ALP activity (1 μM, % of Control) Calvarial cell
Outline: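 Primary calvarial osteoblasts or MC3T3-E1 cells in α-MEM with 10% FBS were treated with 1 μM compound, against a 0.1% DMSO vehicle. Cell lysates were incubated with p-nitrophenylphosphate at 37° for 30 minutes and read at 405 nm. ALP activity was expressed as p-nitrophenol/μg protein/min and reported as % change versus vehicle.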

MC3T3-E1 cells = experiment: Alkaline phosphatase (ALP) activity in MC3T3-E1 cells; assay type: cell-based; conditions: 1 μM compound, 3 days
Description: Differentiation and activity of osteoblasts were indirectly evaluated by measuring an ALP activity having a close relationship with osteogenesis.
Osteoblasts (Calvarial cells) prepared in Experimental Example 1 and MC3T3-E1 cells (available from RIKEN Cell Bank, Japan) were collected in α-MEM supplemented with 10% FBS, followed by cell counting. The cells were dispensed into 24-well cultureware at a density of 2×10^4 cells/well. After culturing of the cells for 24 hours, the culture media were discarded and replaced with fresh media in which test compounds were diluted to a concentration of 1 μM (1 mL/well). In addition, the vehicle control group containing 0.1% DMSO was also treated. […] When the experiment was terminated, the supernatant was removed and the cells were washed three times with cold phosphate buffer at 4°. 0.2% Triton X-100 was added to the washed cells which were then subjected to three cycles of freezing at −70° and thawing at room temperature for the complete lysis of cells. The cell extracts were pooled and centrifuged to collect the cell supernatant which was used for the measurement of ALP activity and proteins. The protein concentration was measured using a BCA assay kit (manufactured by Sigma-Aldrich). For the measurement of ALP activity, p-nitrophenylphosphate was added to the cell supernatant which was then incubated at 37° for 30 minutes, and the reaction was terminated with the addition of 50 μL of 0.2N sodium hydroxide. The standard curve was plotted at the absorbance of 405 nm using p-nitrophenol as a standard material and then the absorbance of test materials thus reacted was measured to determine the production amount of p-nitrophenol.
The ALP activity was calculated by dividing the amount of p-nitrophenol produced from each test material by the protein amount and the reaction time. Therefore, the unit of ALP activity was given in terms of p-nitrophenol/μg protein/min. The results are given in Tables 28-1 and 28-2 where the ALP activity unit of each test material was given in terms of % change through the comparison between the individual test materials and the vehicle control group.

[4] = tested on: Osteoblasts (Calvarial cells); experiment: Cytotoxicity test (MTT); conditions: 1 μM compound, 72 hours, in comparison with vehicle control

Compound	inhibition at 1 µM [1] [%]	Cell viability (%) Calvarial cell [2] [%]	activity at 1 µM [3] [%]	Cell viability (%) Calvarial cell [4]	Osteoclastogenesis inhibition (%) 1 μM [1] [%]	ALP activity (1 μM, % of Control) Calvarial cell [3]	further results
Cc1ccc(Nc2nc(N3CCC(N)CC3)ccc2[N+](=O)[O-])cc1 [Compound 13, 2-(4-methylphenylamino)-6-(4-aminopiperidino)-3-nitropyridine]	92	97	115	–	–	–	–
COc1ccc(Nc2nc(NC(C)C)ccc2[N+](=O)[O-])cc1 [Compound 16, 2-(4-methoxyphenylamino)-6-(isopropylamino)-3-nitropyridine]	–	100	–	–	–	–	activity at 1 µM (MC3T3-E1 cells; Mus musculus, 72 h, MC3T3-E1 cell, read-out: ALP activity (1 μM, % of Control) MC3T3-E1 cell): 118%
COc1ccc(Nc2nc(N(C)CC3OCCO3)ccc2[N+](=O)[O-])cc1 [Compound 18, 2-(4-methoxyphenylamino)-6-[(N-[1,3]-dioxolan-2-ylmethyl)methylamino]-3-nitropyridine]	–	–	–	91%	–	–	ALP activity (1 μM, % of Control) MC3T3-E1 cell (MC3T3-E1 cells): 113 % of Control
COc1ccc(Nc2nc(N3CCN=C3C)ccc2[N+](=O)[O-])cc1 [Compound 20, 2-(4-methoxyphenylamino)-6-[(2-methyl-4,5-dihydro)imidazol-1-yl]-3-nitropyridine]	–	–	–	–	–	–	ALP activity (1 μM, % of Control) MC3T3-E1 cell (MC3T3-E1 cells): 124 % of Control
CC(C)(C)c1ccc(Nc2nc(N3CCC(N)CC3)ccc2[N+](=O)[O-])cc1 [Compound 43, 2-[4-(t-butyl)phenylamino]-6-(4-aminopiperidino)-3-nitropyridine]	100	114	121	–	–	–	–
CC(C)CNc1ccc([N+](=O)[O-])c(Nc2ccc(N)cc2)n1 [Compound 59, 2-[4-(amino)phenylamino]-6-(isobutylamino)-3-nitropyridine]	81	99	115	–	–	–	–
CC(=O)c1cccc(Nc2nc(NC(C)C)ccc2[N+](=O)[O-])c1 [Compound 97, 2-(3-acetylphenylamino)-6-(isopropylamino)-3-nitropyridine]	80	114	188	–	–	–	–
CC(=O)c1cccc(Nc2nc(N3CCN=C3C)ccc2[N+](=O)[O-])c1 [Compound 100, 2-(3-acetylphenylamino)-6-[(2-methyl-4,5-dihydro)imidazol-1-yl]-3-nitropyridine]	–	–	–	91%	–	–	ALP activity (1 μM, % of Control) MC3T3-E1 cell (MC3T3-E1 cells): 126 % of Control
CC(=O)c1cccc(Nc2nc(N3CCNCC3)ccc2[N+](=O)[O-])c1 [Compound 106, 2-(3-acetylphenylamino)-6-(piperazin-1-yl)-3-nitropyridine]	87	81	116	–	–	–	–
O=[N+]([O-])c1ccc(N2CCNCC2)nc1Nc1ccc(N2CCOCC2)cc1 [Compound 120, 2-(4-morpholinophenylamino)-6-(piperazin-1-yl)-3-nitropyridine]	63	94	115	–	–	–	–
NC1CCN(c2ccc([N+](=O)[O-])c(Nc3ccc(N4CCOCC4)cc3)n2)CC1 [Compound 121, 2-(4-morpholinophenylamino)-6-(4-aminopiperidino)-3-nitropyridine]	89	100	127	–	–	–	–
CNc1ccc([N+](=O)[O-])c(Nc2ccc(-c3csc(C)n3)cc2)n1 [Compound 132, 2-[4-(2-methylthiazol-4-yl)phenylamino]-6-(methylamino)-3-nitropyridine]	80	101	198	–	–	–	–
Cc1nc(-c2ccc(Nc3nc(N4CCC(O)CC4)ccc3[N+](=O)[O-])cc2)cs1 [Compound 135, 2-[4-(2-methylthiazol-4-yl)phenylamino]-6-(4-hydroxypiperidino)-3-nitropyridine]	93	106	113	–	–	–	–
Cc1nc(-c2ccc(Nc3nc(NCc4cccnc4)ccc3[N+](=O)[O-])cc2)cs1 [Compound 138, 2-[4-(2-methylthiazol-4-yl)phenylamino]-6-[(3-pyridyl)methylamino]-3-nitropyridine]	98	94	121	–	–	–	–
Cc1nc(-c2ccc(Nc3nc(NCc4ccncc4)ccc3[N+](=O)[O-])cc2)cs1 [Compound 139, 2-[4-(2-methylthiazol-4-yl)phenylamino]-6-[(4-pyridyl)methylamino]-3-nitropyridine]	99	95	122	–	–	–	–
Cc1nc(-c2ccc(Nc3nc(N4CCOCC4)ccc3[N+](=O)[O-])cc2)cs1 [Compound 145, 2-[4-(2-methylthiazol-4-yl)phenylamino]-6-morpholino-3-nitropyridine]	94	96	117	–	–	–	–
CC(C)CNc1ccc([N+](=O)[O-])c(Nc2ccc(N3CCCCC3)c(F)c2)n1 [Compound 225, 2-[(3-fluoro-4-piperidino)phenylamino]-6-(isobutylamino)-3-nitropyridine]	–	–	–	90%	60	150 % of Control	–
CC1=NCCN1c1ccc([N+](=O)[O-])c(Nc2ccc(N3CCCCC3)c(F)c2)n1 [Compound 227, 2-[(3-fluoro-4-piperidino)phenylamino]-6-[(2-methyl-4,5-dihydro)imidazol-1-yl]-3-nitropyridine]	–	–	–	103%	65	122 % of Control	–
O=[N+]([O-])c1ccc(NCc2cccnc2)nc1Nc1ccc(N2CCCCC2)c(F)c1 [Compound 229, 2-[(3-fluoro-4-piperidino)phenylamino]-6-[(3-pyridyl)methylamino]-3-nitropyridine]	–	–	–	104% and 125%	97	114 % of Control	–
O=[N+]([O-])c1ccc(NCc2ccncc2)nc1Nc1ccc(N2CCCCC2)c(F)c1 [Compound 230, 2-[(3-fluoro-4-piperidino)phenylamino]-6-[(4-pyridyl)methylamino]-3-nitropyridine]	–	–	–	101%	93	120 % of Control	–
CC(C)(C)Nc1ccc([N+](=O)[O-])c(Nc2ccc(N3CCCCC3)c(F)c2)n1 [Compound 231, 2-[(3-fluoro-4-piperidino)phenylamino]-6-(t-butylamino)-3-nitropyridine]	–	–	–	112%	82	121 % of Control	–
O=[N+]([O-])c1ccc(N2CCOCC2)nc1Nc1ccc(N2CCCCC2)c(F)c1 [Compound 235, 2-[(3-fluoro-4-piperidino)phenylamino]-6-morpholino-3-nitropyridine]	–	–	–	105%	86	121 % of Control	–
CNc1ccc([N+](=O)[O-])c(Nc2ccc(N3CCC(O)CC3)c(F)c2)n1 [Compound 236, 2-{[3-fluoro-4-(4-hydroxypiperidino)]phenylamino}-6-(methylamino)-3-nitropyridine]	–	–	–	91%	76	209 % of Control	–
CN1CCN(c2ccc([N+](=O)[O-])c(Nc3ccc(N4CCC(O)CC4)c(F)c3)n2)CC1 [Compound 244, 2-{[3-fluoro-4-(4-hydroxypiperidino)]phenylamino}-6-(4-methylpiperazin-1-yl)-3-nitropyridine]	–	–	–	99%	62	118 % of Control	–
